Experimental data as given in patent publication US7285393B2, “Assay for modulation of γ secretase” (Merck Sharp & Dohme Limited, priority 2002, dated 2007).

Legend:
[1] = target: T1, γ(42)-secretase activity (Homo sapiens, UniProt P49768); assay: Exogenous substrate γ-secretase assay, Aβ(42) generation from C100Flag; type: biochemical; conditions: SH-SY5Y membranes, recombinant C100Flag substrate, 0.5% CHAPSO
T1 construct: utilizing SH-SY5Y membranes as source of γ-secretase enzyme; endogenous in cells; host or cells: human SH-SY5Y neuroblastoma cell membranes (0.5% CHAPSO)
Description: (§1) Exogenous substrate γ-secretase assays—For determination of the potencies of Merck A and B, membranes from SH-SY5Y membranes stored in PBS, 5% glycerol were collected by centrifugation for 30 min at 180,000 g. For in vitro generation of Aβ peptides, 80 μg of membranes were incubated with 7.5 μg of recombinant C100Flag (Li et al., 2000a) in 20 mM HEPES, pH 7.3, 2 mM EDTA, 0.1% bovine serum albumin, 0.5% CHAPSO in 100 μl final volume similar to described methods (Li et al., 2000a) in the presence of increasing compound concentrations. Aβ peptides were quantified by an electrochemiluminescence assay in a 96-well plate format [Origen M-Series™ analyzer, Igen] as described (Beher et al., 2001) using 35 μl of the reaction for Aβ(40) and 50 μl for Aβ(42) detection. Non-specific background was defined by the signal obtained when the assay was performed in the presence of 10 μM of Merck A. For determination of γ-secretase activity in the sucrose gradient fractions, 20 μl of each fraction were incubated with 10 μg of recombinant C100Flag and processed further as above.
(§2) FIG. 1. γ-Secretase inhibitors synthesized for this study and their potencies for inhibition of γ(40)- and γ(42)-secretase activities. […] The reduction of Aβ generation was measured relative to Me2SO-treated controls and error bars indicate the standard error the mean from triplicate experiments.

[2] = target: T2, γ(40)-secretase activity (Homo sapiens, UniProt P49768); assay: Exogenous substrate γ-secretase assay, Aβ(40) generation from C100Flag; type: biochemical; conditions: SH-SY5Y membranes, recombinant C100Flag substrate, 0.5% CHAPSO
T2 construct: utilizing SH-SY5Y membranes as source of γ-secretase enzyme; endogenous in cells; host or cells: human SH-SY5Y neuroblastoma cell membranes (0.5% CHAPSO)
Description: as §1, §2

[3] = system: Aβ42, Aβ38 and Aβ40 production; conditions: cited from earlier work
[4] = target: T3, γ-secretase complex (PS1 heterodimer and nicastrin) (Homo sapiens, UniProt P49768); assay: Inhibitor affinity precipitation of CHAPSO-solubilized γ-secretase with biotinylated Merck C, Western blot; type: binding; conditions: test compound 200 μM, Merck C 0.1 μM, 2.5 mg beads
T3 construct: mainly occurs as a heterodimer of its N- and C-terminal fragment; endogenous in cells; host or cells: human SH-SY5Y neuroblastoma cell membranes, solubilised in 1% CHAPSO and diluted to 0.5%
Description: Western blot analyses—Equal amounts of protein were separated by SDS-polyacrylamide gel electrophoresis and transferred to nitrocellulose membranes. Probing of the membranes was carried out with various antibodies, as indicated in the figures, using the enhanced-chemiluminescence system (ECL, Amersham). Quantitation of bands using a computerized image analysis system (MCID, Imaging Research Inc.) was performed as described previously (Beher et al., 1999).
CHAPSO-solubilization of active γ-secretase and inhibitor affinity precipitations—SH-SY5Y membranes stored in PBS, 5% glycerol were collected by centrifugation for 30 min at 180,000 g. Membrane proteins were solubilized in 1% (w/v) CHAPSO, 50 mM MES-NaOH, pH 6.0, 0.15 M NaCl, 5 mM MgCl2, 1×EDTA-free protease inhibitor mixture (Roche Molecular Biochemicals). Insoluble debris was removed by centrifugation at 180,000 g for 30 min and the resulting supernatant (solubilized γ-secretase) adjusted with the same buffer without CHAPSO to give a final detergent concentration of 0.5% CHAPSO (w/v). Endogenous biotinylated proteins were removed by adding streptavidin-coupled magnetic beads and centrifugation for 2 min at 20,000 g after an incubation for 30 min at 4° C. […]

## CC(C)CC(NC(=O)C(Cc1ccccc1)CC(O)C(Cc1ccccc1)NC(=O)OC(C)(C)C)C(=O)NC(Cc1ccccc1)C(N)=O (stereo not shown) [Merck A]
[1]
  IC50 for inhibition of γ(42)-secretase activity (in vitro generation of Aβ(42)): low nanomolar range
[2]
  IC50 for inhibition of γ(40)-secretase activity (in vitro generation of Aβ(40)): low nanomolar range

## CC(C)CC(NC(=O)C(Cc1ccccc1)CC(O)C(Cc1ccccc1)NC(=O)OC(C)(C)C)C(=O)NC(Cc1ccccc1)C(=O)NCCCCCNC(=O)CCCCCNC(=O)CCCCCNC(=O)CCCCCN (stereo not shown) [Merck B]
[1]
  IC50 for inhibition of γ(42)-secretase activity (in vitro generation of Aβ(42)): low nanomolar range
[2]
  IC50 for inhibition of γ(40)-secretase activity (in vitro generation of Aβ(40)): low nanomolar range

## CC(C)Cc1ccc(C(C)C(=O)O)cc1 (stereo not shown) [ibuprofen]
[3]
  Effect on production of Aβ38: increasing
  Effect on production of Aβ40: constant
  Effect on production of Aβ42: inhibit

## COc1ccc2c(c1)c(CC(=O)O)c(C)n2C(=O)c1ccc(Cl)cc1 [indomethacin]
[3]
  Effect on production of Aβ38: increasing
  Effect on production of Aβ40: constant
  Effect on production of Aβ42: inhibit

## CC1=C(CC(=O)O)c2cc(F)ccc2/C1=C\c1ccc(S(C)(=O)=O)cc1 [sulindac sulfone]
[3]
  Effect on production of Aβ42: does not lower
[4]
  Effect on capture efficiency for PS1 heterodimer and mature nicastrin by Merck C: comparable to the DMSO (Me2O) control

## CSc1ccc(/C=C2/C(C)=C(CC(=O)O)c3cc(F)ccc32)cc1 [sulindac sulphide]
[3]
  Effect on production of Aβ38: increasing
  Effect on production of Aβ40: constant
  Effect on production of Aβ42: inhibit
[4]
  Effect on capture efficiency for PS1 heterodimer and mature nicastrin by Merck C: enhanced
